From PubChem BioAssay (NCI)
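Test compounds were applied to cells in 96-well plates for 48 hours at 5 doses. GI50: concentration for 50% inhibition of growth. TGI denotes the concentration required for complete inhibition of growth.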

What was measured:
Test in all cases: NCI-60 cell line screen, 48 h
SNB-19 CNS = system: SNB-19 CNS
A549 NSCLC = system: A549 NSCLC
UACC-257 melanoma = system: UACC-257 melanoma
SK-MEL-2 melanoma = system: SK-MEL-2 melanoma
U251 CNS = system: U251 CNS
MOLT-4 leukemia = system: MOLT-4 leukemia
MALME-3M melanoma = system: MALME-3M melanoma
BT-549 breast = system: BT-549 breast
NCI-H23 lung = system: NCI-H23 lung
IGROV1 ovarian = system: IGROV1 ovarian
EKVX NSCLC = system: EKVX NSCLC
NCI-H226 lung = system: NCI-H226 lung
COLO 205 colon = system: COLO 205 colon
786-0 renal = system: 786-0 renal
HOP-62 NSCLC = system: HOP-62 NSCLC
SK-MEL-28 melanoma = system: SK-MEL-28 melanoma
OVCAR-8 ovarian = system: OVCAR-8 ovarian
MDA-MB-231 breast = system: MDA-MB-231 breast
K-562 leukemia = system: K-562 leukemia
SF-268 CNS = system: SF-268 CNS
SK-MEL-5 melanoma = system: SK-MEL-5 melanoma
LOX IMVI melanoma = system: LOX IMVI melanoma
MCF7 breast = system: MCF7 breast
RPMI-8226 leukemia = system: RPMI-8226 leukemia
M14 melanoma = system: M14 melanoma
SR leukemia = system: SR leukemia
HCT-116 colon = system: HCT-116 colon
HS 578T breast = system: HS 578T breast
NCI/ADR-RES ovarian = system: NCI/ADR-RES ovarian
CAKI-1 renal = system: CAKI-1 renal
HL-60(TB) leukemia = system: HL-60(TB) leukemia
UACC-62 melanoma = system: UACC-62 melanoma
OVCAR-3 ovarian = system: OVCAR-3 ovarian
OVCAR-4 ovarian = system: OVCAR-4 ovarian
PC-3 prostate = system: PC-3 prostate
MDA-MB-435 = system: MDA-MB-435
SF-295 CNS = system: SF-295 CNS
SN12C renal = system: SN12C renal
NCI-H522 lung = system: NCI-H522 lung
SW-620 colon = system: SW-620 colon
SF-539 CNS = system: SF-539 CNS
SK-OV-3 ovarian = system: SK-OV-3 ovarian
SNB-75 CNS = system: SNB-75 CNS
OVCAR-5 ovarian = system: OVCAR-5 ovarian
HT29 colon = system: HT29 colon
T-47D breast = system: T-47D breast
NCI-H460 lung = system: NCI-H460 lung
RXF 393 renal = system: RXF 393 renal
KM12 colon = system: KM12 colon
TK-10 renal = system: TK-10 renal
A498 renal = system: A498 renal
ACHN renal = system: ACHN renal
HCC-2998 colon = system: HCC-2998 colon
DU-145 prostate = system: DU-145 prostate
UO-31 renal = system: UO-31 renal
HOP-92 NSCLC = system: HOP-92 NSCLC
HCT-15 colon = system: HCT-15 colon

O=C(Nc1ccc(OCc2nnc(-c3ccc(Cl)cc3)o2)c(F)c1)Nc1ccc(Cl)c(C(F)(F)F)c1
GI50 (SNB-19 CNS): 2.92 µM | TGI (SNB-19 CNS): 18.3 µM | GI50 (A549 NSCLC): 2.65 µM | TGI (A549 NSCLC): 11.7 µM | GI50 (UACC-257 melanoma): 2.71 µM | TGI (UACC-257 melanoma): 11.1 µM | GI50 (SK-MEL-2 melanoma): 3.17 µM | TGI (SK-MEL-2 melanoma): 9.48 µM | GI50 (U251 CNS): 1.88 µM | TGI (U251 CNS): 5.03 µM | GI50 (MOLT-4 leukemia): 2.07 µM | TGI (MOLT-4 leukemia): 7.5 µM | GI50 (MALME-3M melanoma): 2.4 µM | TGI (MALME-3M melanoma): 6.33 µM | GI50 (BT-549 breast): 3.06 µM | TGI (BT-549 breast): 11 µM | GI50 (NCI-H23 lung): 2.36 µM | TGI (NCI-H23 lung): 7.38 µM | GI50 (IGROV1 ovarian): 2.9 µM | TGI (IGROV1 ovarian): 10.5 µM | GI50 (EKVX NSCLC): 2.64 µM | TGI (EKVX NSCLC): 10.4 µM | GI50 (NCI-H226 lung): 2.84 µM | TGI (NCI-H226 lung): 13.2 µM | GI50 (COLO 205 colon): 1.73 µM | TGI (COLO 205 colon): 3.5 µM | GI50 (786-0 renal): 2.05 µM | TGI (786-0 renal): 5.1 µM | GI50 (HOP-62 NSCLC): 0.793 µM | TGI (HOP-62 NSCLC): 5.84 µM | GI50 (SK-MEL-28 melanoma): 3.02 µM | TGI (SK-MEL-28 melanoma): 13.5 µM | GI50 (OVCAR-8 ovarian): 2.97 µM | TGI (OVCAR-8 ovarian): 12.1 µM | GI50 (MDA-MB-231 breast): 2.35 µM | TGI (MDA-MB-231 breast): 7.64 µM | GI50 (K-562 leukemia): 2.94 µM | TGI (K-562 leukemia): 12.6 µM | GI50 (SF-268 CNS): 3.33 µM | TGI (SF-268 CNS): 12.5 µM | GI50 (SK-MEL-5 melanoma): 2.01 µM | TGI (SK-MEL-5 melanoma): 4.42 µM | GI50 (LOX IMVI melanoma): 2.23 µM | TGI (LOX IMVI melanoma): 6.66 µM | GI50 (MCF7 breast): 1.92 µM | TGI (MCF7 breast): 7.7 µM | GI50 (RPMI-8226 leukemia): 1.82 µM | TGI (RPMI-8226 leukemia): 8.09 µM | GI50 (M14 melanoma): 2.23 µM | TGI (M14 melanoma): 11.7 µM | GI50 (SR leukemia): 1.85 µM | TGI (SR leukemia): 4.9 µM | GI50 (HCT-116 colon): 1.8 µM | TGI (HCT-116 colon): 6.16 µM | GI50 (HS 578T breast): 2.13 µM | TGI (HS 578T breast): 7.96 µM | GI50 (NCI/ADR-RES ovarian): 2.59 µM | TGI (NCI/ADR-RES ovarian): 11.5 µM | GI50 (CAKI-1 renal): 2.97 µM | TGI (CAKI-1 renal): 12.2 µM | GI50 (HL-60(TB) leukemia): 2.83 µM | TGI (HL-60(TB) leukemia): 6.78 µM | GI50 (UACC-62 melanoma): 1.54 µM | TGI (UACC-62 melanoma): 4.21 µM | GI50 (OVCAR-3 ovarian): 1.7 µM | TGI (OVCAR-3 ovarian): 5.01 µM | GI50 (OVCAR-4 ovarian): 2.02 µM | TGI (OVCAR-4 ovarian): 7.59 µM | GI50 (PC-3 prostate): 1.84 µM | TGI (PC-3 prostate): 7.87 µM | GI50 (MDA-MB-435): 2.62 µM | TGI (MDA-MB-435): 11.6 µM | GI50 (SF-295 CNS): 2.26 µM | TGI (SF-295 CNS): 6.99 µM | GI50 (SN12C renal): 2.02 µM | TGI (SN12C renal): 7.91 µM | GI50 (NCI-H522 lung): 2.27 µM | TGI (NCI-H522 lung): 7.04 µM | GI50 (SW-620 colon): 2.9 µM | TGI (SW-620 colon): 11 µM | GI50 (SF-539 CNS): 1.91 µM | TGI (SF-539 CNS): 4.34 µM | GI50 (SK-OV-3 ovarian): 3.3 µM | TGI (SK-OV-3 ovarian): 12.5 µM | GI50 (SNB-75 CNS): 1.44 µM | TGI (SNB-75 CNS): 6.29 µM | GI50 (OVCAR-5 ovarian): 3.66 µM | TGI (OVCAR-5 ovarian): 17.6 µM | GI50 (HT29 colon): 2.29 µM | TGI (HT29 colon): 5.69 µM | GI50 (T-47D breast): 2.21 µM | TGI (T-47D breast): 8.66 µM | GI50 (NCI-H460 lung): 1.85 µM | TGI (NCI-H460 lung): 4.86 µM | GI50 (RXF 393 renal): 2.6 µM | TGI (RXF 393 renal): 7.76 µM | GI50 (KM12 colon): 1.71 µM | TGI (KM12 colon): 4.96 µM | GI50 (TK-10 renal): 3.72 µM | TGI (TK-10 renal): 17 µM | GI50 (A498 renal): 1.18 µM | TGI (A498 renal): 7.43 µM | GI50 (ACHN renal): 2.11 µM | TGI (ACHN renal): 8.52 µM | GI50 (HCC-2998 colon): 3.01 µM | TGI (HCC-2998 colon): 7.98 µM | GI50 (DU-145 prostate): 2.48 µM | TGI (DU-145 prostate): 6.78 µM | GI50 (UO-31 renal): 1.52 µM | TGI (UO-31 renal): 4.1 µM | GI50 (HOP-92 NSCLC): 1.46 µM | TGI (HOP-92 NSCLC): 3.82 µM | GI50 (HCT-15 colon): 2.03 µM | TGI (HCT-15 colon): 10.9 µM
